Test results as given in patent US20240409543A1, “PYRROLOPYRAZOLE SPIRO COMPOUND” (CHIA TAI TIANQING PHARMACEUTICAL GROUP CO., LTD., priority 2021, published 2024).

How the values were obtained:
[1] = test system: human pancreatic cancer MIA PaCa-2 cell line subcutaneous xenograft; test: In-vivo inhibition of MiaPaCa-2 subcutaneous xenograft tumor; set-up: species or system female BALB/c nude mouse
Experimental: To evaluate the antitumor effect of each test drug in a female BALB/c nude mouse animal model with subcutaneous xenograft of a human pancreatic cancer MIA PaCa-2 cell line.
MIA PaCa-2 cells were cultured in a DMEM medium containing 2.5% HS and 10% fetal bovine serum. MIA PaCa-2 cells in the logarithmic growth phase were collected and resuspended in PBS to achieve an appropriate concentration for subcutaneous tumor inoculation in nude mice.
The experimental mice were inoculated subcutaneously on the right dorsal side with 5×10^6 MIA PaCa-2 cells (the cells were resuspended in a 1:1 mixture of PBS and matrigel), with 0.1 mL per mouse. Tumor growth was observed regularly. Once the tumors reached an average volume of approximately 125 (100-150) mm^3, the mice were randomly divided into groups for administration based on the tumor size and body weight.
After the start of the administration, the body weight and tumor size of the mice were measured twice a week. Calculation formula for tumor volume: Tumor volume (mm^3)=1/2×(a×b^2) (where a represents long diameter and b represents short diameter).

[2] = In-vivo pharmacokinetic study in rats; settings: male, SD, rat, plasma
Experimental: This experiment was intended to evaluate the pharmacokinetic behavior of each compound after a single intravenous injection and intragastric administration and to investigate the bioavailability after intragastric administration.
Male SD rats aged 7 to 10 weeks were selected. The rats were fasted for at least 12 h before administration and were allowed to feed again 4 h after administration, with free access to water throughout the experiment.
On the day of the experiment, animals in the intravenous group were given the corresponding compound by a single injection via the tail vein at an administration volume of 5 mL/kg; the oral group was given the corresponding compound by a single intragastric administration at an administration volume of 10 mL/kg. The animals were weighed before administration, and the administration volume was calculated based on their body weight. Sample collection time points: 0.083 h (injection group), 0.25 h, 0.5 h, 1 h, 2 h, 4 h, 6 h, 8 h, and 24 h. At each time point, approximately 200 μL of whole blood was collected via the jugular vein, which was then used to prepare plasma for concentration determination by high performance liquid chromatography-tandem mass spectrometry (LC-MS/MS).
All animals were euthanized with CO2 anesthesia after the PK samples were taken at the last time point. The plasma concentrations were processed using a non-compartmental model of the pharmacokinetic software WinNonlin™ Version 6.3 (Pharsight, Mountain View, CA), and the pharmacokinetic parameters were calculated using a linear log-trapezoidal method.

[3] = Day 12, 30 mg/kg oral once daily
[4] = Day 39, 30 mg/kg oral once daily
[5] = iv, injection (tail vein), dose 2 mg/kg
[6] = oral administration, dose 20 mg/kg

Row | SMILES | Mean tumor volume [1, 3] [mm^3] | Inhibition rate (%) at day 39 [1, 4] [%] | Mean tumor volume [1, 4] [mm^3] | AUC(0-t) [2, 5] [µM·h] | clearance [2, 5] [mL/min/kg] | bioavailability ([2]; oral 20 mg/kg vs injection 2 mg/kg) [%] | AUC(0-t) [2, 6] [µM·h] | Cmax [2, 6] [µM]
1 | CNc1nccc(Sc2nc(CO)c(N3CCC4(CC3)Cn3nccc3C4N)nc2C)c1Cl (centres unmarked) [Compound 2] | 129.17 | 66.6 | 248.09 |  |  |  |  | 
2 | Cc1nc(N2CCC3(CC2)Cn2nccc2C3N)c(CO)nc1Sc1ccnc(N)c1Cl (centres unmarked) [Compound 1] | 129.20 | 63.1 | 278.34 | 4.05 | 17.3 | 98 | 39.7 | 9.73
